# Values quoted from earlier work, collected in patent US20200392071A1, “Gene cluster for the biosynthetic production of tetracycline compounds in a heterologous host” (HELMHOLTZ-ZENTRUM FÜR INFEKTIONSFORSCHUNG GMBH, priority 2017, published 2020).
# Key:
# [1] = tested on: tetracycline-resistant pathogens; settings: Proctor et al. 1978
# Gram-negative pathogens = settings: patients with urinary tract infections caused by Gram-negative pathogens; Molnar et al. 1977
smiles,measurement,setting,value
"CC(=O)C1=C(O)C(N)C2Cc3c(c(O)c4c(O)c(C)ccc4c3C)C(=O)C2(O)C1=O (centres unmarked) [chelocardin, Chelocardin]",activity against tetracycline-resistant pathogens,[1],active
same,outcome in a small phase II clinical study,Gram-negative pathogens,promising
